Results taken from article PMC7257206, “A novel sphingosylphosphorylcholine and sphingosine-1-phosphate receptor 1 antagonist, KRO-105714, for alleviating atopic dermatitis” (Journal of Inflammation (London, England), 2020).

Tests used:
[1] = biological target: T1, sphingosine-1-phosphate receptor 1 (S1P1) (Homo sapiens, UniProt P21453); assay: […]-GTPγS binding assay (SPC-stimulated) in membranes of HEK-293 cells stably expressing hS1P1; type: biochemical
T1 construct: gene S1PR1; hS1P1 stably expressed in HEK-293 cells (membrane pellets)

2D6 = biological target: T2, 2D6 (Homo sapiens, UniProt P10635); assay: biochemical; parameters: CYP450 isoform inhibition assay, IC50; conditions: read-out: CYP450 IC50
T2 construct: gene CYP2D6

2C9 = biological target: T3, 2C9 (Homo sapiens, UniProt P11712); assay: biochemical
T3 construct: gene CYP2C9

1A2 = biological target: T4, 1A2 (Homo sapiens, UniProt P05177); assay: biochemical; parameters: CYP450 isoform inhibition assay, IC50; conditions: read-out: CYP450 IC50
T4 construct: gene CYP1A2
T4 sequence (P05177 1-516): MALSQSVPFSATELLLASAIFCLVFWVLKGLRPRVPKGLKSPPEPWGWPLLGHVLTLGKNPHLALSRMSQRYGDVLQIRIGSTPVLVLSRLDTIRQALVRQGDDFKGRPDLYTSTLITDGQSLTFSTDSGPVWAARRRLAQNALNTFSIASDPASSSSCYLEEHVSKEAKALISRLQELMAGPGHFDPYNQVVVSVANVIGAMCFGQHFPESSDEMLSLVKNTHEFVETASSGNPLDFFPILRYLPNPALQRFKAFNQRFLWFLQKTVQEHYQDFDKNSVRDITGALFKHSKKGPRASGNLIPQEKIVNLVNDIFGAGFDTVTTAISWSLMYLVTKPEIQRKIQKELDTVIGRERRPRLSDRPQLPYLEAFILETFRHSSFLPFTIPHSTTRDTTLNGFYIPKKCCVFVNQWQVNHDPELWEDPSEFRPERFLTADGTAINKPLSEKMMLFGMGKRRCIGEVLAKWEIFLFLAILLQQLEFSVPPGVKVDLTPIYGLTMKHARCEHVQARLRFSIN

3A4 = biological target: T5, 3A4 (Homo sapiens, UniProt P08684); assay: biochemical; parameters: CYP450 isoform inhibition assay, IC50; conditions: read-out: CYP450 IC50
T5 construct: gene CYP3A4

2C19 = biological target: T6, 2C19 (Homo sapiens, UniProt P33261); assay: biochemical; parameters: CYP450 isoform inhibition assay, IC50; conditions: read-out: CYP450 IC50
T6 construct: gene CYP2C19

hERG potassium channel [2] = biological target: T7, hERG potassium channel (Homo sapiens, UniProt Q12809); assay: in vitro; parameters: hERG binding assay, [3H]astemizole displacement
T7 construct: gene KCNH2
Description: KRO-105714 also had no cardiotoxicity in the hERG potassium channel binding assay (IC50 > 10 μM) (Additional file 1: Table S1B).

hERG potassium channel [3] = biological target: T7, hERG potassium channel; assay: biochemical

T7 sequence (Q12809 whole entry): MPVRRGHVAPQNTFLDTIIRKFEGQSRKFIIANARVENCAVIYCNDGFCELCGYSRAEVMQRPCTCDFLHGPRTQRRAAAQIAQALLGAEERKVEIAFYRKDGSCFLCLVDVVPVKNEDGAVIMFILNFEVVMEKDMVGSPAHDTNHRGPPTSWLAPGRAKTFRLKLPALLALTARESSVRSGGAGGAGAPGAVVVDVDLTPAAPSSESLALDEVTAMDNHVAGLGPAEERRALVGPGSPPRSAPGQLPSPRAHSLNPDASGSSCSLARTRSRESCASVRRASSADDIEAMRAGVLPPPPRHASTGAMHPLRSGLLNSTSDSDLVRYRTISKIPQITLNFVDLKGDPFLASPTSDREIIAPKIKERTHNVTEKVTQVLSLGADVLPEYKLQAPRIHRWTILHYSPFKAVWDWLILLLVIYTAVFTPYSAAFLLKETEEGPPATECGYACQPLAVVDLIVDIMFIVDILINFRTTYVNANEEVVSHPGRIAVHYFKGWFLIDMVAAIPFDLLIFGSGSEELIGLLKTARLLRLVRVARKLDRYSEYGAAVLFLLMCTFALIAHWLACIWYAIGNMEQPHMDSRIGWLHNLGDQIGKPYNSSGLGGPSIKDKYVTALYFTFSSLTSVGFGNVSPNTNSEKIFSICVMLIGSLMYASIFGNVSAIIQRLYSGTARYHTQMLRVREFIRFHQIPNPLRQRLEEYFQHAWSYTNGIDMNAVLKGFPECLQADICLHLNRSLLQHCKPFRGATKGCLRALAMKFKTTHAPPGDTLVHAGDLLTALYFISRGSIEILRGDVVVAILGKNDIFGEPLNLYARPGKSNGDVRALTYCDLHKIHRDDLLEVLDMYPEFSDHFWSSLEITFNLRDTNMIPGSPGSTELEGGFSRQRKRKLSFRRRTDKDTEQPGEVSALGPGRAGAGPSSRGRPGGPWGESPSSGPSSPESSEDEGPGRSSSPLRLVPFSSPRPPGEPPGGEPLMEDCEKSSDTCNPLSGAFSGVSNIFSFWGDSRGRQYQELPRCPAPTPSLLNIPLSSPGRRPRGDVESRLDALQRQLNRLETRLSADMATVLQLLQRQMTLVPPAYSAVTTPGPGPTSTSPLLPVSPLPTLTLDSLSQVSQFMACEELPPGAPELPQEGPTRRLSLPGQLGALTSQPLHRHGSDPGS
T3 sequence (P11712 whole entry): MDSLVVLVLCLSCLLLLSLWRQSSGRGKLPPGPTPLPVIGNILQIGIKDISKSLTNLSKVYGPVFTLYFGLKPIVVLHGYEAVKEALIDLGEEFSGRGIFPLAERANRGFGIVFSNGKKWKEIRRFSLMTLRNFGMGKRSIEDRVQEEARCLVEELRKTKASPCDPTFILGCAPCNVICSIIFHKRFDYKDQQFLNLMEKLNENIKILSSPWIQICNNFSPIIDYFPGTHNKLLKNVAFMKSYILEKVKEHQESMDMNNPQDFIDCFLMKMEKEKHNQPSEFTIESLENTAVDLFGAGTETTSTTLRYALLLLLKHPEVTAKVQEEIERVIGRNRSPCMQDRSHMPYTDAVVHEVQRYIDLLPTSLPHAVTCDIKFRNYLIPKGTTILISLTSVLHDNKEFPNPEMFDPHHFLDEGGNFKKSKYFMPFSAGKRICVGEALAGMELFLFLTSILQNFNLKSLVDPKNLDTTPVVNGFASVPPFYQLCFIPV
T6 sequence (P33261 whole entry, canonical isoform): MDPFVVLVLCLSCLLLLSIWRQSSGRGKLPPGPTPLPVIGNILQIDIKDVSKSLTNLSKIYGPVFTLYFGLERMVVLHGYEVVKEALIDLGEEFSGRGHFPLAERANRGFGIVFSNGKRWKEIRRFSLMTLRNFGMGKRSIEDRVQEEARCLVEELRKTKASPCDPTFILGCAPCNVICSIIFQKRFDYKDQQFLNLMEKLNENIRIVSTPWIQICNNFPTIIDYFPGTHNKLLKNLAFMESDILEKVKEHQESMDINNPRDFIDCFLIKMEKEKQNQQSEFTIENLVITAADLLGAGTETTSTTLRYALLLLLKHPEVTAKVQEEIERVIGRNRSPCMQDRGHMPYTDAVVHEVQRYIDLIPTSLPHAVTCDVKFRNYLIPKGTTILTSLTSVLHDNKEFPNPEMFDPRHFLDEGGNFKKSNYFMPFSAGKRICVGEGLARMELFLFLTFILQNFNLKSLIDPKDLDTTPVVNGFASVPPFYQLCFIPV
T5 sequence (P08684 whole entry, canonical isoform): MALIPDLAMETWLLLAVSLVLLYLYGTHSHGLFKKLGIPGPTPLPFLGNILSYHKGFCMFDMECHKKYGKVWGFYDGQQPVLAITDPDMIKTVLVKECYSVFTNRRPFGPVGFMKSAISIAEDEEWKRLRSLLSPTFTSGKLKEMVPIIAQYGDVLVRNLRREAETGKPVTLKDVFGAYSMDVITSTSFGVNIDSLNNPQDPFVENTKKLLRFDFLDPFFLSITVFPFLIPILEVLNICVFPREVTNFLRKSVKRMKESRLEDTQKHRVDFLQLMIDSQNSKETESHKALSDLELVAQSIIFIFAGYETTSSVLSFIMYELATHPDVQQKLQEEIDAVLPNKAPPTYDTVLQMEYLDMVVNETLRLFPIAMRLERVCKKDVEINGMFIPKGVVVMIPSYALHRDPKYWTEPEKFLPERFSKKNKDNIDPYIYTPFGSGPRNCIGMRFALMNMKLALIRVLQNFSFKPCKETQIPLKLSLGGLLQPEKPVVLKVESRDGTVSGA
T1 sequence (P21453 whole entry): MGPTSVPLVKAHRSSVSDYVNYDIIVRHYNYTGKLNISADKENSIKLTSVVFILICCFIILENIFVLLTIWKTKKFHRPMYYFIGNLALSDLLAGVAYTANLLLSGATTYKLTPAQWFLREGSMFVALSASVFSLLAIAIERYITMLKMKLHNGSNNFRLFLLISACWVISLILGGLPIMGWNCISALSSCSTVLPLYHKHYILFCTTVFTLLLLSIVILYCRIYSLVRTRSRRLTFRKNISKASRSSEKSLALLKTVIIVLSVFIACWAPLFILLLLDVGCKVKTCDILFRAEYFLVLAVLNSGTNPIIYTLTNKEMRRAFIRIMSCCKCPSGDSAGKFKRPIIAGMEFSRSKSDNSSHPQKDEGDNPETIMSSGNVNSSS
T2 sequence (P10635 whole entry, canonical isoform): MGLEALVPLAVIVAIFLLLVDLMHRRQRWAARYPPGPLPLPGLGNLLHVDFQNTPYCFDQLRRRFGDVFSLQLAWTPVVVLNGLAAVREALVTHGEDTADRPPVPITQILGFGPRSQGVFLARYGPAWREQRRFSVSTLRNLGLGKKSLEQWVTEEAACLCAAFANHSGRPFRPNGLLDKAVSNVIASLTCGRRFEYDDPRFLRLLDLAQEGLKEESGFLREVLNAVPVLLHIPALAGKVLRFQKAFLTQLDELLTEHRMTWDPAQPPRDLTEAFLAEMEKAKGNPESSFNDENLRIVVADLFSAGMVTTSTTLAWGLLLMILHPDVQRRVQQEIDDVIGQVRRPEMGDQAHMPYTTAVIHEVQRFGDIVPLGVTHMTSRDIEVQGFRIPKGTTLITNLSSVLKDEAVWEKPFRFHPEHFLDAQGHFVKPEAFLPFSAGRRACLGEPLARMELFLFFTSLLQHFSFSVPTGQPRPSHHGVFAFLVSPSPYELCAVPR

With `COc1ccccc1N1CCN(c2nc(NC(=O)C(C)(C)C)c(C(=O)c3ccccc3)s2)CC1` [KRO-105714] the IC50 [1] was 0.0792 µM, the IC50 (2D6) was greater than 10 µM and the IC50 (2C9) was greater than 10 µM. It also gave an IC50 (1A2) greater than 10 µM, an IC50 (3A4) greater than 10 µM and an IC50 (2C19) greater than 10 µM. The inhibition at 10 µM (hERG potassium channel [2]; read-out: %-Inhibition/[3H]Astemizole -5) was 45%, the inhibition at 1 µM (hERG potassium channel [2]; read-out: %-Inhibition/[3H]Astemizole -6) was 3% and the IC50 (hERG potassium channel [3]) was greater than 10 µM.
